Assay results: PMC12067093, “Discovery and optimisation of a covalent ligand for TRIM25 and its application to targeted protein ubiquitination” (Chemical Science, 2025)

Biological target: T1, TRIM25 PRYSPRY and BRD4 BD2 ternary complex (Homo sapiens, UniProt O60885+Q14258)
T1 construct: made in house; host or cells: Sf9 insect cells (TRIM25 PRYSPRY)
Assay: Recombinant protein ternary complex pull-down
Assay type: binding
Details: TRIM25 PRYSPRY pre-labelled with compound 50 μM overnight, intermediate wash step, then BRD4 BD2
Method: 3 25 mM HEPES, 50 mM NaCl for 20 h at 4 °C, before purification by gel filtration into
4 buffer 20 mM Bis-Tris pH 7.5, 150 mM NaCl, 0.5 mM TCEP. Commercially available
5 sitting drop crystallization screens were dispensed at 20 °C using an automated
6 Mosquito machine (TTP Labtech). Crystals grew from a pre-labelled protein-ligand
8 drops containing 100 nL protein-ligand complex and 100 nL reservoir solution. For X-
9 ray data acquisition, crystals were cryoprotected with perfluoropolyether cryo oil
10 (Hampton Research, HR2-814). Diffraction data were collected on beamline I04 (λ =
11 0.9537 Å) at Diamond Light Source (Oxford, UK), processed using DIALS17 and
12 merged and scaled using AIMLESS.18 The structure of the complex was solved by
13 molecular replacement using the available TRIM25 PRYSPRY structure (6FLM)10 as
15 in Coot20 and refined using Refmac21 and Phenix.19 Coordinates and structure factors
16 are deposited in the Protein Data Bank under accession code 9I0T. Further details on
17 data collection and refinement statistics are summarised in Supplementary Table 1.
20 Recombinant TRIM25 PRYSPRY (100 µM) in 25 mM HEPES pH 7.5, 50 mM NaCl,
23 acquired with Topspin (Bruker) at timepoint 0 (immediately after mixing protein with
24 compound), and after 4 h incubation.
26 Recombinant protein ternary complex pull-down assays
27 His10-TRIM25 or His6-TRIM25 PRYSPRY (4 µM) was pre-labelled with either DMSO
28 (1%) or heterobifunctional compounds (HB1, HB2 or HB3, 50 µM, 1% DMSO) and
29 captured on His Mag Sepharose Ni magnetic beads, and washed once to remove
30 excess unreacted compound, as described above.
32 Substrate (BRD4 or BRD4 BD2) (4 µM, assuming 1:1 with on-bead captured TRIM25-
33 compound complex) was added to the on-bead captured TRIM25-compound complex,
1 and incubated in capture buffer 50 mM Tris pH 7.5, 150 mM NaCl, 5 mM MgCl2, 20 mM
2 imidazole, 0.5 mM TCEP, 0.5% IGEPAL for 2 h at 4 °C, with rotation. Beads were
3 washed three times with 500 µL capture buffer, and mixed with 12 µL NuPAGE LDS
4 sample buffer (1x, Invitrogen, NP0007). Samples were analysed by SDS-PAGE and […]

T1 sequence (Q14258 435-630, other chains not shown): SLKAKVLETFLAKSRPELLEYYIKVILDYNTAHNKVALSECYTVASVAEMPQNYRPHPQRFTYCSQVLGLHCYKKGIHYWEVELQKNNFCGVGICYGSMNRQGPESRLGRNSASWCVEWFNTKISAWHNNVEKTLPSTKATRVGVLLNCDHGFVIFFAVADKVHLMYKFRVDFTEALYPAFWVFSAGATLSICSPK

Row | in vitro ternary complex formation (pull-down) | Compound
1 | Ternary complex formation was observed | Cc1cc(C(=O)N2CCCN(C(=O)CCl)CC2)ccc1-c1cccc(C(=O)NCCOCCOCCOCCOCCNC(=O)C[C@@H]2N=C(c3ccc(Cl)cc3)c3c(sc(C)c3C)-n3c(C)nnc32)c1 [HB3]
2 | Ternary complex formation was observed | Cc1cc(C(=O)N2CCCN(C(=O)CCl)CC2)ccc1-c1cccc(C(=O)NCCOCCOCCOCCNC(=O)C[C@@H]2N=C(c3ccc(Cl)cc3)c3c(sc(C)c3C)-n3c(C)nnc32)c1 [HB2]
3 | Ternary complex formation was observed | Cc1cc(C(=O)N2CCCN(C(=O)CCl)CC2)ccc1-c1cccc(C(=O)NCCOCCOCCNC(=O)C[C@@H]2N=C(c3ccc(Cl)cc3)c3c(sc(C)c3C)-n3c(C)nnc32)c1 [HB1]
